Data: patent US20140336503A1, “RA[…] […] RELATED METHODS THEREOF” (The Regents of the University of Michigan, priority 2013, published 2014)
pIC50: −log10 of the molar value.

Key:
human cathepsin K = target: T1, human cathepsin K (Homo sapiens, UniProt P43235); conditions: in vitro; cited from earlier work
T1 sequence (P43235 115-329): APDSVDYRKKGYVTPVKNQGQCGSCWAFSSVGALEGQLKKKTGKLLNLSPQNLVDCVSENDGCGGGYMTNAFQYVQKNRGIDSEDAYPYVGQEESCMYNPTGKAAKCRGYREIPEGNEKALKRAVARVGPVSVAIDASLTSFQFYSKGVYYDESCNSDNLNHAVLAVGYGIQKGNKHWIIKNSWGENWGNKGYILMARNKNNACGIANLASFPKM

osteoclasts in bone = experiment: microPET imaging of radioligand uptake into bone in normal rats, with blocking studies; type: in vivo; conditions: rat
From the text: Studies were done using imaging with Concorde Microsystems R4 and P4 PET scanners. Rats were anesthetized with isoflurane and maintained on 1% isoflurane throughout the imaging period. The animals were placed on their dorsal side in the scanner, and body temperature was maintained using a heating pad. A catheter was inserted into the tail vein for administration of radioactive solutions. Following a measured transmission scan, solutions of radioligands ([^11C]1 or ([^11C]2, 37-185 MBq in 0.5-1 mL volumes) were injected via the catheter, followed by a 1 ml flush of saline. For the blocking study, a 2 mg/kg dose of unlabeled compound 2 was administered 10 minutes prior to the injection of the radiolabeled [^11C]2. Emission data was collected for 60 minutes (12×5 min fames). The emission data was corrected for decay, dead time and random coincidences, then reconstructed using iterative ordered subset expectation maximization-maximum a posteriori (OSEM-MAP) yielding a reconstructed image resolution of approximately 1.4 mm. Volumetric regions of interest (ROIs) were defined using hand-drawn circular ROIs placed on the summed images, and the time-activity curves determined for each ROI (ASI Pro VM software: Siemens Medical Systems, Malvern, Pa.).

[1] = whole body biodistribution of radioactivity after intravenous injection in rats; type: in vivo, rat; conditions: female rats, i.v.; for Tissue biodistribution, Bone, avg: femur in its entirety
Protocol: The whole body biodistribution of radioactivity after intravenous injection of [^11C]1 was determined in rats. Animals (N =6, female CD rats) were lightly anesthetized (isoflurane) and injected via the tail vein with 1.85-4.44 MBq of radioligand formulated in 5% ethanol/saline. At selected times (5 and 40 min), groups (N=3) of animals were anesthetized, euthanized (decapitation) and samples of tissues removed. Tissue samples were weighed, counted for carbon-11, and the data calculated as % injected dose/g.

COc1ccc(CCNC(=O)c2cnc(C#N)nc2NC2CCCCC2)cc1 [[^11C]1, 2-cyano-4-(cyclohexylamino)-N-(4-[^11C]methoxyphenethyl)-pyrimidine-5-carboxamide]
pIC50 (human cathepsin K): 10.65

CC(C)(C)CNc1nc(C#N)ncc1C(=O)NCCc1ccc(O[11CH3])cc1 [[^11C]2, 2-cyano-N-(4-[^11C]methoxyphenethyl)-4-(neopentylamino)pyrimidine-5-carboxamide]
bone uptake of radioactivity after blocking dose of unlabeled ligand 2 (osteoclasts in bone; 2 mg/kg unlabeled 2, ten minutes prior to injection): reduction of bone uptake of radioactivity to essentially levels equivalent to background in non-target tissues

[11CH3]Oc1ccc(CCNC(=O)c2cnc(C#N)nc2NC2CCCCC2)cc1 [[^11C]1, 2-cyano-4-(cyclohexylamino)-N-(4-[^11C]methoxyphenethyl)-pyrimidine-5-carboxamide]
uptake and retention into target bone regions with low specific activity dose (osteoclasts in bone; 10.8 GBq/μmol, co-injection of 14 micrograms/kg of unlabeled 1): nearly full block | uptake and retention after pretreatment with unlabeled CCX (osteoclasts in bone; microPET): reduced | uptake in the growth plates (proximal humerus, distal ulnar, carpal, distal femur, proximal tibia, caudal vertebrae) (osteoclasts in bone; microPET): high uptake | Tissue biodistribution, Adrenal, avg ([1]; 5 min): 3.57 % injected dose/g | Tissue biodistribution, Blood, avg ([1]; 5 min): 0.24 % injected dose/g | Tissue biodistribution, Brain, avg ([1]; 5 min): 0.43 % injected dose/g | Tissue biodistribution, Heart, avg ([1]; 5 min): 1.23 % injected dose/g | Tissue biodistribution, Kidney, avg ([1]; 5 min): 2.03 % injected dose/g | Tissue biodistribution, Liver, avg ([1]; 5 min): 3.02 % injected dose/g | Tissue biodistribution, Lung, avg ([1]; 5 min): 0.68 % injected dose/g | Tissue biodistribution, Muscle, avg ([1]; 5 min): 0.11 % injected dose/g | Tissue biodistribution, Pancreas, avg ([1]; 5 min): 1.68 % injected dose/g | Tissue biodistribution, Spleen, avg ([1]; 5 min): 1.03 % injected dose/g | Tissue biodistribution, Bone, avg ([1]; 5 min): 0.26 % injected dose/g | Tissue biodistribution, Adrenal, avg ([1]; 40 min): 0.51 % injected dose/g | Tissue biodistribution, Blood, avg ([1]; 40 min): 0.11 % injected dose/g | Tissue biodistribution, Brain, avg ([1]; 40 min): 0.11 % injected dose/g | Tissue biodistribution, Heart, avg ([1]; 40 min): 0.19 % injected dose/g | Tissue biodistribution, Kidney, avg ([1]; 40 min): 0.41 % injected dose/g | Tissue biodistribution, Liver, avg ([1]; 40 min): 0.68 % injected dose/g | Tissue biodistribution, Lung, avg ([1]; 40 min): 0.16 % injected dose/g | Tissue biodistribution, Muscle, avg ([1]; 40 min): 0.11 % injected dose/g | Tissue biodistribution, Pancreas, avg ([1]; 40 min): 0.56 % injected dose/g | Tissue biodistribution, Spleen, avg ([1]; 40 min): 0.22 % injected dose/g | Tissue biodistribution, Bone, avg ([1]; 40 min): 0.14 % injected dose/g

COc1ccc(CCNC(=O)c2cnc(C#N)nc2NCC(C)(C)C)cc1 [[^11C]2, 2-cyano-N-(4-[^11C]methoxyphenethyl)-4-(neopentylamino)pyrimidine-5-carboxamide]
pIC50 (human cathepsin K): 11.52
